Test results as given in patent US8163871B2, “Enzymatic reactions in the presence of keto acids” (Unigene Laboratories, Inc., priority 2004, dated 2012).
Values belong to the compound of their own block, whether it stands above or below them.

Test system: peptidylglycine α-amidating monooxygenase (PAM)
Assay: α-Amidation of rhPTH(1-31)Gly32-OH to rhPTH(1-31)-NH2 with PAM in the presence of α-keto acids/esters (CEX-HPLC area %)
Format: biochemical
Conditions: 4 mg/mL rhPTH(1-31)Gly32-OH, 15,000 U/mL PAM, MES pH 6.3-6.5, 4 hours at 37° C.
Description: Because the R group is unchanged in this reaction, a large number of R moieties is possible. Applicants have tested a number of keto acids (or corresponding esters or salts thereof), and have reported their efficacy in Table 1 below for the amidation of recombinant human parathyroid hormone truncate (first 31 amino acids of PTH followed by C-terminal glycine). Amidation using catalase is also reported in the footnotes to Table 1. […] A preferred concentration was chosen for each compound. Also, separate controls are therefore used with respect to each of the compounds tested in Table 1, so that each compound's performance may be compared to its corresponding control. […] The control values that are set forth in Table 1 are typical values observed for amidation of rhPTH(1-31)Gly32-OH in the absence of the reaction-enhancing compounds of the invention.
To determine the information in Table 1 below, stock solutions of all reagents were prepared in water. Amidations were carried out under the following conditions: 4 mg/mL rhPTH(1-31)Gly32-OH, 30 mM 2-morpholinoethanesulfonic acid (MES) pH [6.3-6.5], 0.5 μM cupric sulfate, 5 mM potassium iodide, 2 mM ascorbate, [0-1%] ethanol and 15,000 U/mL PAM. All reactions were incubated for 4 hours at 37° C. Reagents were added in the following order: rhPTH(1-31)Gly32-OH, water, MES, potassium iodide, ethanol, cupric sulfate, α-keto acid or ester, ascorbate and PAM. All reactions were acidified to pH 2.0 with 6% trifluoroacetic acid and analyzed by CEX-HPLC (area %) to detect formation of the desired product rhPTH(1-31)NH2.

Compound: CC(C)CC(=O)C(=O)[O-].[Na+] [4-Methyl-2-oxopentanoic acid, sodium salt]
% Conversion (10-150 mM compound): <48%

Compound: 2-Keto glutaric acid, sodium salt
% Conversion (10 mM compound): 76%

Compound: O=C(O)C(=O)c1ccccc1 [Benzoylformic acid]
% Conversion (10 mM compound): 82%

Compound: CCC(=O)C(=O)[O-].[Na+] [2-Ketobutyric acid, sodium salt]
% Conversion (16 mM compound): 96%

Compound: CCC(C)C(=O)C(=O)[O-].[Na+] (stereo not shown) [3-Methyl-2-oxopentanoic acid, sodium salt]
% Conversion (10-150 mM compound): ≦61%

Compound: CC(C)C(=O)C(=O)[O-].[Na+] [3-Methyl-2-oxobutanoic acid, sodium salt]
% Conversion (64 mM compound): 78%

Other lines, results leading:

% Conversion (6 mM compound, average of triplicate values): 86^a %
Compound: CC(=O)C(=O)O [Pyruvic acid]

% Conversion (50 mM compound): 89%
Compound: CCOC(=O)C(C)=O [Ethyl pyruvate]

% Conversion (50 mM compound): 86%
Compound: COC(=O)C(C)=O [Methyl pyruvate]

% Conversion (8 mM compound): 95%
Compound: CC(=O)C(=O)[O-].[Na+] [Sodium pyruvate]
